According to patent US20080096894A1, “Anti-Bacterial Compounds” (ASTON UNIVERSITY, priority 2005, published 2008):
Values after ≈ are worked out from the molar mass of the structure shown.

Columns and labels:
Experiment in all cases: MIC, agar dilution, multipoint inoculator
E. faecium = format: cell-based, Enterococcus faecium; details: upper value of MIC reading
Summary of the method: (§1)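 Read-out is the MIC by agar dilution. Plates contain Mueller Hinton agar; bacteria are applied via multipoint inoculator, 10^4 CFU per spot.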

MRSA = format: cell-based, methicillin-resistant Staphylococcus aureus; details: for MIC: upper value of MIC reading, in µg/mL; for MRSA MIC range: panel of ten MRSA strains (clinical isolates)
Summary of the method: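 Agar dilution MIC on Mueller Hinton agar, multipoint inoculator delivering 10^4 colony forming units per spot. MRSA values are ranges across ten clinical MRSA strains; S. aureus NCTC 6571 as reference strain.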

E. cloacae = format: cell-based, Enterobacter cloacae; details: E. cloacae NCTC 11582; upper value of MIC reading
Protocol: (§2) This activity was measured using a multipoint inoculator method as follows. The MIC for each compound was measured using an agar dilution method (Onda, H., et al., Int. J. Antimicrob. Agents. 18, 263 (2001)) (Mueller Hinton agar) by means of a multipoint inoculator delivering 10^4 colony forming units per spot.

K. pneumoniae = format: cell-based, Klebsiella pneumoniae; details: K. pneumoniae 327; upper value of MIC reading
Protocol: as §2

S. maltophilia = format: cell-based; details: S. maltophilia NCTC 10257; upper value of MIC reading
Summary of the method: as §1

E. faecalis = format: cell-based; details: upper value of MIC reading
Summary of the method: as §1

S. haemolyticus = format: cell-based; details: S. haemolyticus Isolate 1; upper value of MIC reading
Summary of the method: as §1

S. aboni = format: cell-based; details: S. aboni NCTC 6017; upper value of MIC reading
Summary of the method: as §1

S. aureus = format: cell-based, Staphylococcus aureus; details: upper value of MIC reading
Summary of the method: as §1

S. marcesens = format: cell-based, Serratia marcescens; details: S. marcesens 4444; upper value of MIC reading
Protocol: as §2

S. epidemisis = format: cell-based, Staphylococcus epidermidis; details: upper value of MIC reading
Summary of the method: as §1

P. auriginosa = format: cell-based, Pseudomonas aeruginosa; details: P. auriginosa NCTC 6749; upper value of MIC reading
Protocol: as §2

B. bronchiseptica = format: cell-based; details: B. bronchiseptica NCTC 8344; upper value of MIC reading
Summary of the method: as §1

In the case of `NC(=NN=Cc1ccc(O)c(O)c1)c1ccc2ccccc2n1` [QNca], the MIC (E. faecium; E. faecium ACTCC 10541) is reported as 256 µg/mL (≈ 836 µM), the MIC (E. faecium; E. faecium NCTC 7171) is reported as 256 µg/mL (≈ 836 µM) and the MIC (MRSA; MRSA Isolate 1) is reported as 128. For the same compound, the MIC (MRSA; MRSA Isolate 2) was 128, the MIC (MRSA; MRSA Isolate 3) was 128 and the MIC (MRSA; MRSA Isolate 4) was 128. For the same compound, the MIC (MRSA; MRSA Isolate 5) was 128, the MIC (MRSA; MRSA Isolate 6) was 128 and the MIC (MRSA; MRSA Isolate 7) was 128. For the same compound, the MIC (MRSA; MRSA Isolate 8) was 128, the MIC (MRSA; MRSA Isolate 9) was 128 and the MIC (MRSA; MRSA Isolate 10) was 128. The “MRSA MIC range” value (MRSA) was 64 to 128 µg/mL, the MIC (E. cloacae) was 32 µg/mL (≈ 104 µM) and the MIC (K. pneumoniae) was 256 µg/mL (≈ 836 µM). The MIC (S. maltophilia) was 256 µg/mL (≈ 836 µM), the MIC (E. faecalis; E. faecalis EBH1) was 256 µg/mL (≈ 836 µM) and the MIC (E. faecalis; E. faecalis Isolate 1) was 256 µg/mL (≈ 836 µM). The MIC (E. faecalis; E. faecalis Isolate 2) was 256 µg/mL (≈ 836 µM), the MIC (E. faecalis; E. faecalis Isolate 3) was 256 µg/mL (≈ 836 µM) and the MIC (E. faecalis; E. faecalis Isolate 4) was 256 µg/mL (≈ 836 µM). It also gave an MIC (E. faecalis; E. faecalis Isolate 5) of 256 µg/mL (≈ 836 µM), an MIC (E. faecalis; E. faecalis NCTC 5957) of 256 µg/mL (≈ 836 µM) and an MIC (S. haemolyticus) of 128 µg/mL (≈ 418 µM). The MIC (S. aboni) was 256 µg/mL (≈ 836 µM), the MIC (S. aureus; S. aureus Cowan 1) was 128 µg/mL (≈ 418 µM) and the MIC (S. aureus; S. aureus NCTC 6571) was 128 µg/mL (≈ 418 µM). It also gave an MIC (S. aureus; S. aureus NCTC 10788) of 128 µg/mL (≈ 418 µM), an MIC (S. marcesens) of 256 µg/mL (≈ 836 µM) and an MIC (S. epidemisis; S. epidemisis Isolate 1) of 64 µg/mL (≈ 209 µM). The MIC (S. epidemisis; S. epidemisis NCTC 11047) was 64 µg/mL (≈ 209 µM) and the MIC (P. auriginosa) was 256 µg/mL (≈ 836 µM).

In the case of `Oc1cc(O)c(C=NNc2ccccn2)c(O)c1` [HDcd], the MIC (E. faecium; E. faecium ACTCC 10541) is reported as 256 µg/mL (≈ 1040 µM), the MIC (E. faecium; E. faecium NCTC 7171) is reported as 256 µg/mL (≈ 1040 µM) and the MIC (MRSA; MRSA Isolate 1) is reported as 256. The MIC (MRSA; MRSA Isolate 2) was 256, the MIC (MRSA; MRSA Isolate 3) was 256 and the MIC (MRSA; MRSA Isolate 4) was 256. For the same compound, the MIC (MRSA; MRSA Isolate 5) was 256, the MIC (MRSA; MRSA Isolate 6) was 256 and the MIC (MRSA; MRSA Isolate 7) was 256. For the same compound, the MIC (MRSA; MRSA Isolate 8) was 256, the MIC (MRSA; MRSA Isolate 9) was 256 and the MIC (MRSA; MRSA Isolate 10) was 256. For the same compound, the “MRSA MIC range” value (MRSA) was 128 to 256 µg/mL, the MIC (E. cloacae) was 256 µg/mL (≈ 1040 µM) and the MIC (K. pneumoniae) was 256 µg/mL (≈ 1040 µM). The MIC (S. maltophilia) was 128 µg/mL (≈ 522 µM), the MIC (E. faecalis; E. faecalis EBH1) was 256 µg/mL (≈ 1040 µM) and the MIC (E. faecalis; E. faecalis Isolate 1) was 128 µg/mL (≈ 522 µM). The MIC (E. faecalis; E. faecalis Isolate 2) was 128 µg/mL (≈ 522 µM), the MIC (E. faecalis; E. faecalis Isolate 3) was 128 µg/mL (≈ 522 µM) and the MIC (E. faecalis; E. faecalis Isolate 4) was 256 µg/mL (≈ 1040 µM). It also gave an MIC (E. faecalis; E. faecalis Isolate 5) of 128 µg/mL (≈ 522 µM), an MIC (E. faecalis; E. faecalis NCTC 5957) of 256 µg/mL (≈ 1040 µM) and an MIC (B. bronchiseptica) of 256 µg/mL (≈ 1040 µM). The MIC (S. haemolyticus) was 128 µg/mL (≈ 522 µM), the MIC (S. aboni) was 128 µg/mL (≈ 522 µM) and the MIC (S. aureus; S. aureus Cowan 1) was 256 µg/mL (≈ 1040 µM). It also gave an MIC (S. aureus; S. aureus NCTC 6571) of 256 µg/mL (≈ 1040 µM), an MIC (S. aureus; S. aureus NCTC 10788) of 256 µg/mL (≈ 1040 µM) and an MIC (S. marcesens) of 256 µg/mL (≈ 1040 µM). It also gave an MIC (S. epidemisis; S. epidemisis Isolate 1) of 128 µg/mL (≈ 522 µM), an MIC (S. epidemisis; S. epidemisis NCTC 11047) of 128 µg/mL (≈ 522 µM) and an MIC (P. auriginosa) of 256 µg/mL (≈ 1040 µM).

Work on `O=[N+]([O-])c1cc(Br)cc(C=NNc2ccccn2)c1O` [HDcl] yielded an MIC (E. faecium; E. faecium ACTCC 10541) of 128 µg/mL (≈ 380 µM), an MIC (E. faecium; E. faecium NCTC 7171) of 128 µg/mL (≈ 380 µM) and an MIC (MRSA; MRSA Isolate 1) of 128. For the same compound, the MIC (MRSA; MRSA Isolate 2) was 128, the MIC (MRSA; MRSA Isolate 3) was 128 and the MIC (MRSA; MRSA Isolate 4) was 128. It also gave an MIC (MRSA; MRSA Isolate 5) of 128, an MIC (MRSA; MRSA Isolate 6) of 128 and an MIC (MRSA; MRSA Isolate 7) of 128. It also gave an MIC (MRSA; MRSA Isolate 8) of 128, an MIC (MRSA; MRSA Isolate 9) of 128 and an MIC (MRSA; MRSA Isolate 10) of 128. The “MRSA MIC range” value (MRSA) was 64 to 128 µg/mL, the MIC (E. cloacae) was 256 µg/mL (≈ 759 µM) and the MIC (K. pneumoniae) was 128 µg/mL (≈ 380 µM). It also gave an MIC (S. maltophilia) of 128 µg/mL (≈ 380 µM), an MIC (E. faecalis; E. faecalis EBH1) of 128 µg/mL (≈ 380 µM) and an MIC (E. faecalis; E. faecalis Isolate 1) of 128 µg/mL (≈ 380 µM). For the same compound, the MIC (E. faecalis; E. faecalis Isolate 2) was 32 µg/mL (≈ 94.9 µM), the MIC (E. faecalis; E. faecalis Isolate 3) was 16 µg/mL (≈ 47.5 µM) and the MIC (E. faecalis; E. faecalis Isolate 4) was 128 µg/mL (≈ 380 µM). For the same compound, the MIC (E. faecalis; E. faecalis Isolate 5) was 128 µg/mL (≈ 380 µM), the MIC (E. faecalis; E. faecalis NCTC 5957) was 128 µg/mL (≈ 380 µM) and the MIC (B. bronchiseptica) was 128 µg/mL (≈ 380 µM). The MIC (S. haemolyticus) was 128 µg/mL (≈ 380 µM), the MIC (S. aboni) was 128 µg/mL (≈ 380 µM) and the MIC (S. aureus; S. aureus Cowan 1) was 128 µg/mL (≈ 380 µM). The MIC (S. aureus; S. aureus NCTC 6571) was 128 µg/mL (≈ 380 µM), the MIC (S. aureus; S. aureus NCTC 10788) was 128 µg/mL (≈ 380 µM) and the MIC (S. marcesens) was 256 µg/mL (≈ 759 µM). It also gave an MIC (S. epidemisis; S. epidemisis Isolate 1) of 128 µg/mL (≈ 380 µM), an MIC (S. epidemisis; S. epidemisis NCTC 11047) of 64 µg/mL (≈ 190 µM) and an MIC (P. auriginosa) of 128 µg/mL (≈ 380 µM).
